Test results: ChEMBL document CHEMBL1127671, “Molecular modeling studies of aldose reductase inhibitors” (J Med Chem, 1994)

Target: Aldo-keto reductase family 1 member B1 (Rattus norvegicus, UniProt P07943)
Test: Inhibitory activity against purified rat lens aldose reductase (RLAR)

SMILES	IC50
O=C(O)CC1c2ccccc2-c2ccc(F)cc21 (stereo not drawn)	0.85 µM
O=C(O)C1CC12c1ccccc1-c1ccccc12 (stereo not drawn)	11.7 µM
O=C(O)CC1c2ccccc2-c2ccccc21	8.9 µM
c1ccc2c(c1)-c1ccccc1C2Cc1nnn[nH]1	1490 µM
O=C1NC(=O)C2(N1)c1ccccc1-c1ccccc12	3.5 µM
O=C(O)/C=C1\c2ccccc2-c2ccc(F)cc21	56 µM
O=C(O)C=C1c2cc(F)ccc2-c2ccc(F)cc21	16 µM
CC(C)c1cccc2c1OC(C(C)C)C(=S)N2CC(=O)O (stereo not drawn)	0.13 µM
O=C(O)CC1c2cc(F)ccc2-c2ccc(F)cc21	0.43 µM
O=C(O)Cc1nn(Cc2ccc(Br)cc2F)c(=O)c2ccccc12 [PONALRESTAT]	0.016 µM
O=C(O)C1c2ccccc2-c2ccccc21	182 µM
O=C(O)Cn1c(=O)n(Cc2ccc(Br)cc2F)c(=O)c2ccc(Cl)cc21 [ZENARESTAT]	0.0044 µM
c1ccc2c(c1)-c1ccccc1C2c1nnn[nH]1	217 µM
